Measurements taken from US12398104B2, “Odorless thiols for permanent waving, straightening and depilatory applications” (The Procter & Gamble Company, priority 2017, dated 2025).

Experiment: Mannequin head curl retention expert evaluation (air dried hair)
Conditions: through 20 washes
Text: Mannequin Head Odor and Curl Expert Evaluation
Control perm: Omniperm™ with ammonium thioglycolate, available from Zotos Professional®, including both the reducing and oxidizing steps.
Curl Retention Assessments:
Treatment and expert sensory performed by licensed cosmetologist with 20+ years expertise in perms. All evaluations shown in graphs were done with hair in dry state, after air drying. Photos are available for most time points as well.

C[n+]1cccc(NCCS)c1.[I-] [3-((2-mercaptoethyl)amino)-1-methylpyridin-1-ium iodide]
Curl retention compared with benchmark control perm: equal curl retention
